Where “and” joins values, the source holds several entries; their conditions need not be identical. Equal values may be shown once. Entries after “also recorded” stand apart in the source; their conditions may differ.
Key:
[1] = system: F. diplosiphon strain B481-WT; assay: lactate dehydrogenase (LDH) activity / membrane permeability, strain B481-WT; format: cell-based, Fremyella diplosiphon
Method: The assay quantitatively measures released extracellular LDH activity in culture media by enzymatic reaction.
(§1) F. diplosiphon strains, B481-WT obtained from the UTEX algae repository (Austin, TX, United States), and B481-SD (overexpressed strain with the sterol desaturase gene; accession MH329183) were used in this study. Cultures were grown in liquid BG-11/HEPES medium under wide-spectrum red light (650 nm) with continuous shaking at 170 rpm at 28° C. in an Innova 44R shaker (Eppendorf, Hamburg, Germany) for 6 days. Light fluorescence rate was adjusted to 30 μmol m^−2 s^−1 using the model LI-190SA quantum sensor (Li-Cor, United States). These conditions were kept constant during the study.
Three classes of antibiotics: β-lactams (ampicillin), aminoglycosides (kanamycin), and tetracycline, were tested in this study. Antibiotic stock solutions (25×-100×) were prepared according to the manufacturer's instructions and stored at −20° C. […] Each antibiotic concentration was mixed with 5 ml F. diplosiphon cells adjusted to OD750 nm and 200 μl of each dilution added. […]
The flasks were placed in an incubator at 37° C. in the dark for 24 h prior to lactate dehydrogenase (“LDH”) measurement. On day 6, 50 μl cultures were transferred to a 96 well clear polystyrene microplate (Corning, Inc., NY), and fluorescence Epi-RGB mode was used to macro-evaluation of antibiotic-treated both strains (Amersham Imager 680, GE Healthcare Bio-Sciences AB, Uppsala, Sweden). […] Absorbance was measured at 490 nm using a microplate reader (BioTek Synergy H1 Microplate Reader, Agilent, United States) after 2 h incubation in the dark at room temperature. The calculated average of the control included cells without antibiotics or nVZI treatment was accepted as healthy cells and results were determined by subtracting LDH activity of the control from treated cells. Microscopic observations of antibiotic-related membrane and cyanobacterial structure alterations were made using a Cytation 5 Cell Imaging Multi-Mode reader (BioTek® Instruments, Inc., Winooski, United States).

[2] = system: F. diplosiphon strain B481-SD; assay: phycocyanin and chlorophyll α autofluorescence, strain B481-SD; format: cell-based, Fremyella diplosiphon; conditions: for concentrations with significant increase in pigment (phycocyanin and chlorophyll α) autofluorescence / concentrations with significant decrease in pigment (phycocyanin and chlorophyll α) autofluorescence: vs untreated control
Method: as §1
(§2) Three classes of antibiotics: β-lactams (ampicillin), aminoglycosides (kanamycin), and tetracycline, were tested in this study. Antibiotic stock solutions (25×-100×) were prepared according to the manufacturer's instructions and stored at −20° C. […] Each antibiotic concentration was mixed with 5 ml F. diplosiphon cells adjusted to OD750 nm and 200 μl of each dilution added.
(§3) Cells grown in the absence of antibiotics or nZVIs served as control. In order to minimize the effects of light scattering, every other well was left blank. Plates were sealed with a Breathe-Easy sealing membrane (Sigma-Aldrich, MO, Lot #MKCP8263) to prevent evaporative water loss and decrease the risk of contamination.
(§4) Phycocyanin and chlorophyll α fluorescence in antibiotic-treated and control F. diplosiphon B481-WT and B481-SD were recorded every other day (48 hour intervals) using a microplate reader (BioTek Synergy H1 Microplate Reader, Agilent, USA). While chlorophyll α fluorescence was recorded at an excitation of 420 nm and emission of 680 nm, phycocyanin was measured at excitations of 590 nm, and emissions of 650 nm, see FIGS. 5-20. Maximum PSII quantum yield (Fv/Fo) of treated and controlled F. diplosiphon strains was likewise measured using MINI-PAM (Walz, Effeltrich, Germany) every 48 h for 6 days after incubating in dark for 15 min. The (Fv/Fo) was calculated using the equation

[3] = system: F. diplosiphon strain B481-WT; assay: phycocyanin and chlorophyll α autofluorescence, strain B481-WT; format: cell-based, Fremyella diplosiphon; conditions: for concentrations with significant decrease in pigment (phycocyanin and chlorophyll α) autofluorescence / concentrations with enhanced pigment accumulation: vs untreated control
Method: as §1, §2, §3, §4

[4] = system: F. diplosiphon strain B481-SD; assay: maximum PSII quantum yield (Fv/Fo), strain B481-SD; format: cell-based, Fremyella diplosiphon
Method: as §4

[5] = system: F. diplosiphon strain B481-WT; format: cell-based, Fremyella diplosiphon
Method: (§5) The flasks were placed in an incubator at 37° C. in the dark for 24 h prior to lactate dehydrogenase (“LDH”) measurement. On day 6, 50 μl cultures were transferred to a 96 well clear polystyrene microplate (Corning, Inc., NY), and fluorescence Epi-RGB mode was used to macro-evaluation of antibiotic-treated both strains (Amersham Imager 680, GE Healthcare Bio-Sciences AB, Uppsala, Sweden). Next, 50 μL of the reaction mixture (LDH Cytotoxicity Assay Kit, Thermo Fisher Scientific, United States) was added. After incubation for 30 min. at room temperature in the dark, 50 μL of stock solution was added and mixed gently (Wejnerowski et al., 2018). Absorbance was measured at 490 nm using a microplate reader (BioTek Synergy H1 Microplate Reader, Agilent, United States) after 2 h incubation in the dark at room temperature. The calculated average of the control included cells without antibiotics or nVZI treatment was accepted as healthy cells and results were determined by subtracting LDH activity of the control from treated cells. Microscopic observations of antibiotic-related membrane and cyanobacterial structure alterations were made using a Cytation 5 Cell Imaging Multi-Mode reader (BioTek® Instruments, Inc., Winooski, United States).

[6] = system: F. diplosiphon B481-SD cultures; assay: total lipid content by gravimetry; format: cell-based, Fremyella diplosiphon; conditions: 0.8 mg/L; not statistically different (p>0.05)
Method: (§6) Total lipids were extracted and GC×GC/TOF-MS analysis of transesterified lipids in F. diplosiphon treated with optimal ampicillin were performed. B481-SD cultures were grown under optimal conditions and harvested on day 15. Total lipids were extracted using the chloroform: methanol method described by Folch et al. (1957). Briefly, cultures were pelleted and lyophilized, and 15 mL methanol/chloroform (2:1, v/v) solvent was added to 100 mg dry weight of cells. The mixture was homogenized, incubated on ice, and centrifuged at 3000 rpm for 10 min to collect the organic phase. The biomass residue was re-extracted thrice with 4 mL of methanol and 2 mL of chloroform. The lower organic phase was dried in a rotary evaporator (Heidolph, IL, USA), and the total lipid content was estimated by gravimetry.

[7] = system: F. diplosiphon B481-SD cultures; assay: GC×GC/TOF-MS analysis of transesterified lipids (FAMEs); format: cell-based, Fremyella diplosiphon; conditions: 0.8 mg/L
Method: as §6
Simultaneous extraction and transesterification of F. diplosiphon lipids were performed according to the method described by Wahlen et al. (2011). […] The reaction was quenched with 4 ml chloroform, washed in distilled water, and centrifuged at 2000 rpm for phase separation. The chloroform phase containing FAMEs and lipids was transferred to a new flask, and the remaining biomass was washed twice with 2 mL chloroform and mixed. The extracted FAMEs were subjected to high-resolution two-dimensional gas chromatography-time of flight mass spectrometry (GC×GC/TOF-MS) as described by Tabatabai et al. (2018).

[8] = system: F. diplosiphon strain B481-WT; assay: maximum PSII quantum yield (Fv/Fo), strain B481-WT; format: cell-based, Fremyella diplosiphon
Method: as §4

Microcystis aeruginosa = conditions: cited from earlier work
[9] = system: F. diplosiphon strain B481-SD; assay: lactate dehydrogenase (LDH) activity / membrane permeability, strain B481-SD; format: cell-based, Fremyella diplosiphon
[10] = system: F. diplosiphon strain B481-SD; format: cell-based, Fremyella diplosiphon
Method: as §5

F. diplosiphon = conditions: day 6; strain not stated

| Structure (SMILES) | concentration of maximum LDH activity [1] [mg/L] | concentrations with significant increase in pigment (phycocyanin and chlorophyll α) autofluorescence [2] | concentrations with significant decrease in pigment (phycocyanin and chlorophyll α) autofluorescence [3] [mg/L] | concentration above which filament fragmentation and alteration of cell shape were observed [5] | concentrations with significant decrease in pigment (phycocyanin and chlorophyll α) autofluorescence [2] [mg/L] | concentration of maximum LDH activity [9] [mg/L] | concentrations with enhanced pigment accumulation [3] [mg/L] | concentration of maximal LDH activity (membrane permeability) (F. diplosiphon) [mg/L] | further results |
| --- | --- | --- | --- | --- | --- | --- | --- | --- | --- |
| CC1(C)S[C@@H]2[C@H](NC(=O)[C@H](N)c3ccccc3)C(=O)N2[C@H]1C(=O)O [ampicillin] | 0.4 | 0.2 to 25.6 mg/L and 0.2 to 51.2 mg/L | 3.2 to 102.5 | higher than 25.6 mg/L |  |  |  |  | concentrations with significant increase in Fv/Fo ([4]; day 4, vs control): 0.2 to 3.2 mg/L; total lipid content compared to the control [6]: slight increase; monounsaturated fatty acids compared to the control [7]: Enhanced amounts; polyunsaturated fatty acids compared to the control [7]: Enhanced amounts; saturated fatty acids (SFAs) compared to the control [7]: augmentation; also recorded: Enhanced amounts; methyl ester of hexadecanoic acid (C16: 0) level vs untreated control ([7]; p<0.05): significantly higher; methyl octadecadienoate (C18: 2) level vs untreated control ([7]; p<0.05): significantly higher; methyloctadecenoate (C18: 1) level vs untreated control ([7]; p<0.05): significantly higher; ç-Linolenic acid (C18: 3) level vs untreated control ([7]; p<0.05): significantly higher |
| CO/N=C(\C(=O)N[C@@H]1C(=O)N2C(C(=O)O)=C(COC(C)=O)CS[C@H]12)c1csc(N)n1 [cefotaxime] |  |  |  |  | 0.8 to 102.5 |  |  |  | concentration above which there is no recovery of Fv/Fo [4]: higher than 1.6 mg/L; concentration above which there is no recovery of Fv/Fo [8]: > 0.05 mg/L |
| CC[C@H]1OC(=O)[C@H](C)[C@@H](O[C@H]2C[C@@](C)(OC)[C@@H](O)[C@H](C)O2)[C@H](C)[C@@H](O[C@@H]2O[C@H](C)C[C@H](N(C)C)[C@H]2O)[C@](C)(O)C[C@@H](C)C(=O)[C@H](C)[C@@H](O)[C@]1(C)O [erythromycin] |  |  |  |  |  |  |  |  | low dosages reported to trigger photosynthetic activity (Microcystis aeruginosa): < 20 mg/L |
| NC[C@H]1O[C@H](O[C@H]2[C@H](O)[C@@H](O[C@H]3O[C@H](CO)[C@@H](O)[C@H](N)[C@H]3O)[C@H](N)C[C@@H]2N)[C@H](O)[C@@H](O)[C@@H]1O [kanamycin] | 0.4 | 0.2 to 3.2 mg/L | 6.4 to 102.5 | > 51.2 µg/mL | 6.4 to 102.5 | 0.8 | 0.2 to 3.2 | 0.8 | concentrations with decrease in Fv/Fo ratio ([8]; exposure for 6 days): 1.6 to 102.5 mg/L; concentrations with significant increase in Fv/Fo ([8]; vs control group): 0.2 to 1.6 mg/L; concentration above which filament fragmentation and alteration of cell shape were observed [10]: > 51.2 µg/mL |
| CN(C)[C@@H]1C(O)=C(C(N)=O)C(=O)[C@@]2(O)C(O)=C3C(=O)c4c(O)cccc4[C@@](C)(O)[C@H]3C[C@@H]12 [tetracycline] | 0.4 | 0.8 to 12.8 mg/L | 25.6 to 410 |  | 102.5 to 410 | 0.8 | 0.8 to 12.8 | 0.8 | concentrations with significant increase in pigment autofluorescence ([2]; day 6): 0.8 to 12.8 mg/L; concentrations with significant increase in pigment autofluorescence ([3]; day 6): 0.8 to 12.8 mg/L; concentrations with decrease in Fv/Fo ratio ([4]; exposure for 6 days): higher than 102.5 mg/L |

— patent publication US20240327882A1, “Methods and Compositions for Increasing Bio-products in Cyanobacteria using Low-Dose Antibiotics” (priority 2023, published 2024)
